Molecules are shown by their SMILES.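 In this assay, cells in 96-well plates receive the compound at five concentrations for 48 hours. Endpoints are linearly interpolated between the surrounding concentrations. GI50 marks 50% less growth. At the TGI there is no net growth.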 Some results are limits rather than exact numbers.

Holding throughout (experiment): growth of human tumour cells (NCI), 48 h
Test [1] deals with HOP-92 NSCLC.
The test system of test [2] is COLO 205 colon.
For test [3], the system named is TK-10 renal.
Test [4] relates to SN12C renal.
Test [5] concerns SF-268 CNS.
Test [6] relates to SW-620 colon.
The subject of test [7] is U251 CNS.
The test system of test [8] is ACHN renal.
The test system of test [9] is RXF 393 renal.
The test system of test [10] is SF-539 CNS.

For the compound `Nc1nc2c(ncn2Cc2ccccc2CCO)c(=O)[nH]1`, the TGI in [1], in test [2], in [3], in [4], in test [5] and in test [6] was above 100 µM each time. For the same compound, the TGI in test [7], in test [8] and in test [9] was above 100 µM throughout.

In the case of `COc1cc2nncc(Sc3cnnc4ccccc34)c2cc1OC`, the TGI in test [1] is above 100 µM; in [2], above 100 µM; in test [3] it was 81.3 µM; in test [5] it was above 100 µM; in [6] it was 41.3 µM; in [7] it was 67.5 µM. For the same compound, the TGI worked out at 51.9 µM in [8] and 51.7 µM in test [10].

For `COc1ccc(C2C(Cl)C(=O)N2n2cnc3ccccc3c2=O)cc1OC` (centres undefined), the TGI in [2], in test [3], in test [4], in [5], in [6] and in test [7] was above 100 µM in each case. Besides, the TGI in test [8] and in test [9] was above 100 µM throughout.

Consider `Cc1cc([N+](=O)[O-])c(C)c2c1[nH]c1ccc(/C(CCC3CCCC3)=N\N)cc12`, for which the TGI was determined as 33.1 µM in test [2]; 27.3 µM in test [3]; 29.7 µM in test [4]; 37.5 µM in test [5]; 33.5 µM in test [6]; 28.8 µM in test [8]. Moreover, the TGI in [10] is 34.8 µM.

With `CC(C)c1ccc2nc3ccc(C(=O)NCCN(C)C)cn3c(=O)c2c1`, the TGI in test [2] was determined as 33.8 µM; in test [3] it was 34.3 µM; in test [4], 35.9 µM; in test [5], 36.3 µM; in test [6], 28.6 µM; in test [7], 39.9 µM. Also, the figures for the TGI in test [8] and in test [10] were 94.2 µM and 29.2 µM, respectively.

As to `COc1ccc(C(C2=C(C)C(=O)c3ccccc3C2=O)c2ccc(C(C)C)cc(=O)c2O)cc1` (centres undefined), the TGI in [1] is 10.3 µM; in test [2], 20.7 µM; in test [4], 8.4 µM; in test [5], 23 µM; in test [6], above 100 µM; in [7] it was 10.9 µM. The TGI in test [8] was determined as 9.96 µM; in test [10] it was 5.8 µM.

With `CC(C)N(C(=O)C12C3C4C1C1C2C3C41C(O)C(C)(C)C)C(C)C` (centres undefined), the TGI in test [1], in test [2], in test [4], in [5], in test [6] and in test [7] was above 50 µM in each case. Further, the TGI in test [8] and in test [10] was above 50 µM each time.

As for `Cc1cc(C)c2c(c1)CN1CN2Cc2cc(C)cc(C)c21`, the TGI in test [2] was 42.6 µM; in test [3], 37.7 µM; in [4], 32.6 µM; in [5], above 100 µM; in test [6] it was above 100 µM; in test [7], 32.3 µM. Besides, the TGI in test [8] was 35.9 µM; in test [9], 22.4 µM.

Consider `CCN(c1ccc(CO)c(Cl)c1)C(C)c1ccc(F)cc1` (centres undefined), for which the GI50 in test [2] was 18.9 µM; in test [3], 1.12 µM; in [4], 14.2 µM; in test [5] it was 17 µM; in [6], 14.1 µM; in test [7], 9 µM. Moreover, the GI50 in test [8] is 14.2 µM; in test [9] it was 11 µM; in test [10], 16.5 µM. Besides, the TGI in [2] turned out to be 35.5 µM; in test [3] it was 6.11 µM; in test [4], 28.5 µM; in [5] it was 31.9 µM; in test [6], 30.2 µM; in test [7] it was 22 µM. Besides, the TGI in test [8] is 27.7 µM; in [9] it was 26 µM; in test [10], 30.8 µM.

On to `COc1ccc2nc(-c3ccccc3)cc(Nc3cccc(/C(C)=N\O)c3)c2c1`, for which the GI50 in test [1] is 1.93 µM; in test [2], 21.4 µM; in test [3], 2.56 µM; in test [4], 6.05 µM; in test [5], 3.34 µM; in test [6] it was 19.4 µM. In addition, the GI50 is 6.05 µM in test [7], 7.29 µM in test [8] and 6.61 µM in [10]. The TGI in test [1] is 5.66 µM; in test [2] it was above 100 µM; in test [3], 9.69 µM; in [4] it was 35.4 µM; in test [5], 9.06 µM; in test [6], above 100 µM. Moreover, the figures for the TGI in test [7], in test [8] and in [10] were 48.5 µM, above 100 µM and 24.8 µM, respectively.

As to `C/C(=N\O)c1ccc(Nc2cc(-n3nnc4ccccc43)nc3ccccc23)cc1`, the GI50 is 14.4 µM in [1]; 9.47 µM in test [2]; 3.14 µM in test [3]; 4.67 µM in test [4]; 9.97 µM in [5]; 11.6 µM in [6]. The GI50 in [7] was 6.68 µM; in test [8], 5.82 µM; in test [10] it was 19 µM. In addition, the TGI in [1] is 46.5 µM; in test [2], above 39.2 µM; in test [3] it was 14.2 µM; in [4], 14.2 µM; in test [5] it was above 41.9 µM; in test [6], 39.4 µM. Also, the values for the TGI in test [7], in [8] and in [10] were 25.3 µM, 21.8 µM and 44.7 µM, respectively.

Turning to `Cc1cc(O)c2c(c1)C(O)(c1ccc3c(c1O)C(=O)c1c(O)cc(C)cc1C3(O)C1OC(CO)C(O)C(O)C1O)c1cccc(O)c1C2=O` (centres undefined), the TGI in test [1] was determined as 20.4 µM; in [3], 27.2 µM; in test [5], 36 µM; in [6], 34 µM; in [7], 23.8 µM; in test [8], 25.8 µM. Further, the TGI in [9] turned out to be 24.7 µM; in [10], 26.5 µM.

Regarding `Cn1cc(C2=C(c3cn(C)c4ccc(N)cc34)C(=O)NC2=O)c2ccccc21`, the GI50 was 6 µM in test [2]; 23.1 µM in [3]; 13.4 µM in test [4]; 15.6 µM in test [5]; 5 µM in [6]; 8.96 µM in [7]. The GI50 in [8] is 13.9 µM; in test [9], 8.13 µM; in test [10], 6.14 µM. In addition, the TGI in [2] was above 20.5 µM; in [3], above 25 µM; in test [4], above 25 µM; in test [5] it was above 25 µM; in test [6] it was above 25 µM; in test [7], above 25 µM. Besides, the TGI in test [8] was above 25 µM; in test [9], above 25 µM; in [10], 24.4 µM.

As to `O=C(CC(C(=O)c1cccs1)c1ccc2c(c1)OCO2)c1ccc(Br)cc1` (centres undefined), the TGI in test [2], in test [3], in test [4], in [5], in test [6] and in test [7] was above 100 µM throughout. The TGI in test [8] was above 100 µM.

Consider `O=C1[C@@H](c2ccc(Cl)cc2)[C@H]2CC=C[C@H]2N1O`, for which the TGI in test [2], in test [3], in test [4], in [5], in test [6] and in [9] was above 100 µM each time. Also, in [10], the TGI was above 100 µM.

For `O=[N+]([O-])c1ccc(N=Nc2c(O)[nH]c3ccc([N+](=O)[O-])cc23)cc1`, the TGI in test [1] is 25.6 µM; in test [2], above 100 µM; in [3], 54.7 µM; in test [5], 38 µM; in [6] it was 29.5 µM; in test [7], 41.7 µM. For the same compound, the TGI in [8] is 76.4 µM; in test [9], 36.5 µM; in [10], 33.4 µM.

On to `COC(=O)C1=CCON(c2ccccc2)C1c1ccccc1` (centres undefined), for which the TGI in test [2], in test [3], in test [5], in test [6], in test [7] and in [8] was above 100 µM in each case. Further, the TGI in test [9] and in test [10] was above 100 µM each time.

Take `CC[C@H](C)[C@H](NC(=O)c1cnccn1)C(=O)N(C)[C@H](C[C@@H](OC(C)=O)c1nc(C(=O)N[C@@H](Cc2ccccc2)C[C@H](C)C(=O)OC)cs1)C(C)C`: the GI50 in test [1] is 0.416 µM; in test [2], 1.17 µM; in [3], 7.18 µM; in test [4], 2.22 µM; in [5], 1.66 µM; in test [6] it was 1.28 µM. In addition, the results for the GI50 in test [7], in [8] and in test [10] were 1.18 µM, 2.69 µM and 0.779 µM, respectively. In addition, the TGI in test [1] is 11.4 µM; in test [2] it was 4.1 µM; in test [3], above 33.3 µM; in [4], above 33.3 µM; in test [5], above 33.3 µM; in test [6] it was above 33.3 µM. The TGI was above 33.3 µM in test [7], above 33.3 µM in test [8] and 2.09 µM in test [10].

With `Cc1c(C)c2cc3c(=O)ccoc3c(C)c2oc1=O`, the TGI in [2], in test [3], in [4], in test [5], in test [6] and in test [7] was above 100 µM each time. In addition, the TGI in test [8], in test [9] and in [10] was above 100 µM in each case.

In the case of `CC(=O)N(CCN)CCN`, the TGI in [1] was above 10 µM; in test [2] it was above 10 µM; in test [3], above 10 µM; in test [4] it was above 10 µM; in [5], above 100 µM; in [6], above 10 µM. The TGI is above 10 µM in test [7], above 100 µM in test [8] and above 10 µM in [9].

`Clc1ccc([O][In]([O]c2ccc(Cl)cn2)[O]c2ccc(Cl)cn2)nc1`: the GI50 in test [2], in test [3], in test [4], in [5], in [6] and in test [7] was above 100 µM each time. Also, the GI50 in test [9] and in test [10] was above 100 µM each time. In addition, the TGI in [2], in test [3], in test [4], in test [5], in test [6] and in test [7] was above 100 µM in each case. Besides, the TGI in test [9] and in test [10] was above 100 µM in each case.

On to `CC(CO)[C@H]1OC(=O)C=C2[C@@]13O[C@@H]3[C@H]1OC(=O)[C@@]3(C)[C@H]4O[C@H]4C[C@@]2(C)[C@@H]13` (some centres undefined), for which the TGI in test [1] was above 26.9 µM; in test [3] it was above 28.2 µM; in test [4] it was 13.6 µM; in test [5], above 25.8 µM; in test [6] it was above 100 µM; in test [7] it was above 100 µM. For the same compound, the TGI came to 4 µM in test [8] and 6.33 µM in test [9].

`C[C@]12CC[C@@H]3c4ccc(O)c([N+](=O)[O-])c4CC[C@H]3[C@@H]1CC[C@@H]2NS(=O)(=O)c1ccc(C(F)(F)F)cc1`: the GI50 was 1.12 µM in [1]; 3.05 µM in test [2]; 2.77 µM in [3]; 1.6 µM in test [4]; 2.28 µM in test [5]; 2.04 µM in test [6]. Besides, the GI50 in test [7] is 1.56 µM; in test [8], 2.17 µM; in test [10] it was 1.77 µM. Besides, the TGI in test [1] came to 2.62 µM; in test [2], 9.4 µM; in [3] it was 7.26 µM; in test [4] it was 3.1 µM; in test [5], 7.55 µM; in test [6], 4.78 µM. For the same compound, the TGI was found to be 3.13 µM in test [7], 6.78 µM in test [8] and 3.39 µM in [10].

Consider `CCc1ccccc1NC(=O)C(=O)C(C(=O)c1ccc(OC)cc1)c1ccc(OC)cc1` (centres undefined), for which the TGI in test [2], in [3], in [4], in test [5], in [6] and in test [7] was above 100 µM each time. The TGI in test [8] and in test [10] was above 100 µM throughout.

As for `O=c1oc2ccccc2c(O)c1C=NC(=S)c1ccncc1`, the TGI in test [1], in test [2], in test [3], in test [4], in [6] and in [7] was above 100 µM throughout. In addition, the TGI in test [8] and in [10] was above 100 µM each time.

For the origin of these results see PubChem BioAssay (NCI).
